Data from patent publication US20130259882A1, “Conjugate of Folate and Antibody Preparation Method and Use Thereof” (priority 2010, published 2013).
Marks after values point to notes of the source that are not given here.

What was measured:
[1] = test system: folate receptor transfected MCF-7 cells; assay: Breast cancer model: folate receptor transfected MCF-7 cells injected subcutaneously in mice, tumor volume and mean survival time; type: in vivo, nude mice
Description: Animal: 50 healthy and mature female nude mice, body weight 18-22 g are provided by Nanjing University Model Animal Center.
By weight, the mice were randomly divided into normal control group, model group, Epirubicin positive control group, FIG 5 mg/kg group and 40 mg/kg group, FGIG 5 mg/kg group and 40 mg/kg group. 7 days before the beginning of the experiment, the mice were maintained with feed without folic acid. From day 0, model group, epirubicin positive control group, FIG 5 mg/kg group or 40 mg/kg group and FGIG 5 mg/kg group or 40 mg/kg group were subcutaneously injected with folate receptor transfected MCF-7 cells (1×10^6) each. From day 5, FIG 5 mg/kg group and FIG 40 mg/kg group were intra-peritoneally injected with FIG 5 mg/kg and 40 mg/kg, respectively). FGIG 5 mg/kg group and FGIG 40 mg/kg group were intra-peritoneally injected with FGIG (5 mg/kg and 40 mg/kg, respectively). Epirubicin positive control group were intra-peritoneally injected with Epirubicin (200 mg/kg). Normal control group and model group were intra-peritoneally injected equal amount of saline. The injections were performed once time every four days. 15 days after injection, the mice were fasting. The next day after treatment, tumor volume was measured with vernier caliper and mean survival time was also calculated.
Volume: solid tumor volume was calculated using the following formula: V=0.5×L×W×H.

[2] = test system: mice with inflammatory bowel disease; assay: Acetic acid induced colitis (inflammatory bowel disease model); type: in vivo, Kunming mice; conditions: Mesalazine 600 mg/kg orally
Description: Mesalazine SR Granules are from Ethypharm (France). MPO detection kit is from Nanjing Jian-Cheng Bioengineering Institute. • 2. Animal: 50 healthy and mature male Kunming mice, body weight 18-22 g are provided by Nanjing University model animal center.
Mesalazine positive control group were given 600 mg/kg Mesalazine orally. Control group and model groups were i.p. injected with equal amount of saline. The injections were performed once per day.
Acetic acid stimulation was used to induce colitis. The mice were fasting on day 9, and on day 10, were anaesthetized with ether inhalation. Before injection, the intestinal was cleaned, with a polyethylene pipe containing 0.1 ml 6% acetic acid inserted about 1.5 cm into the anus.
Colon macroscopic damage index (CMDI): The entire colon was taken and scissored along the mesenteric. The adhesion, ulcer and congestion were scored by naked eye observation according to the Table 7. • 2. Myeloperoxidase (MPO): The tissues were weighted and homogenized (1:19, weight/volume) in Tris buffer. After homogenization and repeated freezing and thawing, the tissues were made to 5% homogenate. MPO detection was performed according to kit manufacturer's instructions and the protein level was detected using the Lowry method.

[3] = test system: rats with rheumatoid arthritis; assay: Complete Freund adjuvant induced rheumatoid arthritis model; type: in vivo, Wistar rat; conditions: Diclofenac sodium 10 mg/kg orally
Description: Rat IgG and complete Freund adjuvant are from Sigma. Diclofenac sodium enteric-coated tablets are from Beijing Novartis Pharma Ltd. RF detection kit is from Nanjing JianCheng Bioengineering Institute. • 2. Animal: 50 healthy and mature Wistar rat, both male and female, body weight 150˜200 g are provided by Wuhan University Laboratory Animal Center, China.
Diclofenac sodium positive control group were given 10 mg/kg Diclofenac sodium orally. Normal control group and model group were Intra-peritoneally injected equal amount of saline. The injections were performed once per day. After measurement of right foot volume on day 0, 0.1 ml complete Freund adjuvant was subcutaneously injected into right ankle. On day 21, the right foot volume was measured after the last injection. Rats were sacrificed with ether inhalation after taking blood samples. The blood samples were centrifuged to get serum for the detection of rheumatoid factor (RF).
Rheumatoid factors RF: 100 μl serum were used with RF detection kit.

## COc1cccc2c1C(=O)c1c(O)c3c(c(O)c1C2=O)C[C@@](O)(C(=O)CO)C[C@@H]3O[C@H]1C[C@H](N)[C@@H](O)[C@H](C)O1 [Epirubicin]
[1]; Epirubicin 200 mg/kg i.p.
  Mean survival time (days): 9 ^▴▴ days
[1]; Epirubicin 200 mg/kg i.p. every four days, day 16
  Volume of tumor (cm^3): 6.18 ± 1.34 ^▴▴ cm^3

## Nc1ccc(O)c(C(=O)O)c1 [Mesalazine]
[2]
  Colon coefficient (g/100 g): 1.21 ± 0.13 g/100 g
[2]; colon tissue
  MPO (U/mg · pro.): 2.42 ± 0.11 U/mg · pro.
[2]; score per Table 7
  Inflammation rating level: 1.9 ± 0.5

## O=C(O)Cc1ccccc1Nc1c(Cl)cccc1Cl [Diclofenac sodium]
[3]; day 21
  Joint injury score: 0.6 ± 0.22
[3]; rheumatoid factor in serum
  RF: 15.2 ± 1.99 pg/mL
[3]; right foot, day 21 vs day 0
  Toe volume difference: 0.090 ± 0.052 mL
